Source: patent publication US20240239854A1, “ANTIMICROBIAL PEPTIDES AND MODIFICATIONS THEREOF” (Donald Danforth Plant Science Center, priority 2022, published 2024)
≈ marks a conversion by molar mass, not a printed value. Where two headings read alike, the source gives them in different places. Residues, ends and D or L forms follow the SMILES beside them. No end group written: not given here.

Columns and labels:
[1] = system: P. capsici; test: In planta assay on tomato leaves (Example 1); type: in vivo; conditions: applied on tomato leaves
Source text: Antifungal activity in planta.

[2] = system: Candida glabrata; test: Antifungal MIC in RPMI medium; conditions: RPMI medium rich in cations
[3] = system: C. parapsilosis; test: MIC, CLSI M27/M38, half-strength potato dextrose broth (Example 2); type: cell-based, Candida parapsilosis; conditions: Table 8; C. parapsilosis ATCC 22019
Description: (§1) MICs were determined at 24-72 hours.

[4] = system: B. cinerea; conditions: B. cinerea; for Antifungal activity relative to the wild-type GMA4C_AC control: in vitro, low cationic conditions
[5] = system: Candida auris; test: MIC, CLSI M27/M38, half-strength potato dextrose broth (Example 2); type: cell-based; conditions: Table 8
[6] = system: Enterotoxigenic E. coli-F4; test: Antibacterial growth inhibition in Mueller-Hinton media, OD600 (Example 3); type: cell-based; conditions: Table 15, MH medium
Description: Salmonella Typhimurium var. Copenhagen, Enterotoxigenic E. coli-F4 and Listeria monocytogens (F5244) strains were grown overnight on an LB agar plate at 37_C. A small number of bacteria was scraped from the plate and added to Mueller-Hinton (MH) growth media and grown to log phase. Cells were diluted to 1-3×10^6 CFU/mL and 50 μl were added to each well in a polypropylene 96-well plate. Synthesized peptide GMA4C_V1A was diluted into 0.2% BSA, 0.0100 acetic acid solution and added to the concentration of 0.2, 0.4, 0.80, 1.6, 3.25, 7.5, 15, 30 and 60 and 120 μM. Then, 50 μl of each peptide solution was added to 50 μl of bacterial cells. Plates were parafilmed and incubated at 37° C. overnight. The concentrations at which bacterial growth inhibition was determined based on the OD600 nm value at each concentration relative to the OD600 nm value of MH medium alone and that of bacterial growth in MH medium without any peptide.

[7] = system: F. graminearum; conditions: in vitro, low cationic conditions; F. graminearum
[8] = system: Coccidioides sp.; type: cell-based; conditions: Table 8
[9] = system: Candida albicans; test: MIC, CLSI M27/M38, half-strength potato dextrose broth (Example 2); type: cell-based; conditions: Table 8
[10] = system: Candida auris; test: Antifungal MIC in RPMI medium; conditions: RPMI medium rich in cations
[11] = system: F. oxysporum; test: Antifungal MIC assay in SFM culture media (Example 1); type: cell-based
[12] = system: P. capsici; test: as above; type: cell-based; conditions: in vitro, low cationic conditions
[13] = system: Aspergillus fumigatus; test: MIC, CLSI M27/M38, half-strength potato dextrose broth (Example 2); type: cell-based; conditions: for MIC (μg/ml) 100%: Table 8, Aspergillus fumigatus AF293
[14] = system: Salmonella Typhimurium var. Copenhagen; test: Antibacterial growth inhibition in Mueller-Hinton media, OD600 (Example 3); type: cell-based; conditions: Table 15; S. Typhimurium var. Copenhagen; MH medium
[15] = system: Listeria monocytogens (F5244); test: as above; type: cell-based; conditions: Table 15; L. monocytogenes F5244; MH medium
[16] = system: F. oxysporum; test: MIC, CLSI M27/M38, half-strength potato dextrose broth (Example 2); type: cell-based; conditions: Table 8
Description: as §1

[17] = system: F. solani; test: as above; type: cell-based; conditions: Table 8; Fusarium F4 (F. solani)
Description: as §1

[18] = system: Tricophyton rubrum; test: MIC against human nail pathogens (Example 2); type: cell-based; conditions: Table 13
[19] = system: Tricophyton metagrophytes; test: MIC against human nail pathogens (Example 2); type: cell-based; conditions: Table 13
[20] = system: Botrytis cinerea T4; type: cell-based
[21] = system: Zymoseptoria tritici IPO323; type: cell-based
[22] = system: Fusarium graminearum PH-1; type: cell-based; conditions: MIC Day 1; 96-well plate, resazurin cell viability
[23] = system: Z. tritici; test: Wheat - Zymoseptoria tritici in planta spray assay, curative; type: in vivo; conditions: wheat plants; 48 μM spray 24 hours after Z. tritici spores; 21 dpi

Row | Molecule | MIC (μg/ml) 100% [3] [µg/mL] | Antifungal activity relative to the wild-type GMA4C_AC control [4] | MIC (μg/ml) 100% ([5]; Candida auris DI17-46) [µg/mL] | MIC (μg/ml) 100% ([5]; Candida auris DI17-47) [µg/mL] | MIC (μg/ml) 100% ([5]; Candida auris DI17-48) [µg/mL] | Antifungal activity relative to the wild-type GMA4C_AC control [7] | MIC (μg/ml) 100% ([8]; Coccidioides sp. Cocci 1) [µg/mL] | MIC (μg/ml) 100% ([8]; Coccidioides sp. Cocci2) [µg/mL] | MIC (μg/ml) 100% ([8]; Coccidioides sp. DI17-143) [µg/mL] | MIC (μg/ml) 100% ([9]; Candida albicans ATCC 90028) [µg/mL] | MIC (μg/ml) 100% ([9]; Candida albicans CA3) [µg/mL] | MIC (μg/ml) 100% ([9]; Candida albicans SC5314) [µg/mL] | MIC (μg/ml) 100% [13] [µg/mL] | also measured
1 | CC[C@H](C)[C@H](NC(=O)[C@H](CCCNC(=N)N)NC(=O)[C@@H](NC(=O)[C@H](CS)NC(=O)[C@H](Cc1ccccc1)NC(=O)[C@H](CS)NC(=O)[C@H](CCCNC(=N)N)NC(=O)[C@H](CCCNC(=N)N)NC(=O)[C@H](CCCNC(=N)N)NC(=O)[C@H](Cc1ccccc1)NC(=O)CNC(=O)[C@H](CCCCN)NC(=O)[C@H](CS)NC(=O)[C@H](CCCNC(=N)N)NC(=O)CNC(=O)CN)[C@@H](C)O)C(=O)N[C@@H](CS)C(N)=O [GMA4C_V1A] (H-GGRCKGFRRRCFCTRIC-NH2; N-terminus assumed) | 4 (≈ 1.98 µM) | equivalent | 8 (≈ 3.96 µM) | 8 (≈ 3.96 µM) | 8 (≈ 3.96 µM) | equivalent | 8 (≈ 3.96 µM) | 4 (≈ 1.98 µM) | 8 (≈ 3.96 µM) | 8 (≈ 3.96 µM) | 8 (≈ 3.96 µM) | 8 (≈ 3.96 µM) | 32 (≈ 15.9 µM) | Reduction of disease symptoms caused by P. capsici [1]: more effective; Antifungal activity against C. glabrata [2]: show antifungal activity; Potency relative to GMA4C_AC in presence of cations ([4]; 100 mM NaCl or 100 mM KCl): 2 fold; Fungal growth inhibition at 6 μM ([4]; in presence of 2 mM CaCl2, peptide 6 μM): inhibit fungal growth; Concentrations at which growth inhibition was observed [6]: 7.5 to 60 µM; Antifungal activity against C. auris [10]: show antifungal activity; F. oxysporum MIC ([11]; Table 2, SFM culture media): 6 μuM; Antifungal activity relative to the wild-type GMA4C_AC control ([11]; in vitro, low cationic conditions, F. oxysporum): equivalent; Antifungal activity relative to the wild-type GMA4C_AC control [12]: equivalent; Concentrations at which growth inhibition was observed [14]: 15 to 60 µM; Concentrations at which growth inhibition was observed [15]: 15 to 30 µM
2 | CC[C@H](C)[C@H](NC(=O)[C@H](CCCNC(=N)N)NC(=O)[C@@H](NC(=O)[C@H](CS)NC(=O)[C@H](Cc1ccccc1)NC(=O)[C@H](CS)NC(=O)[C@H](CCCNC(=N)N)NC(=O)[C@H](CCCNC(=N)N)NC(=O)[C@H](CCCNC(=N)N)NC(=O)[C@H](Cc1ccccc1)NC(=O)CNC(=O)[C@H](CCCNC(=N)N)NC(=O)[C@H](CS)NC(=O)[C@H](CCCNC(=N)N)NC(=O)CNC(=O)CN)[C@@H](C)O)C(=O)N[C@@H](CS)C(N)=O [GMA4C_V2A] (H-GGRCRGFRRRCFCTRIC-NH2; N-terminus assumed) | 8 (≈ 3.91 µM) | two-fold reduction | 16 (≈ 7.82 µM) | 16 (≈ 7.82 µM) | 16 (≈ 7.82 µM) | two-fold reduction | 8 (≈ 3.91 µM) | 16 (≈ 7.82 µM) | 16 (≈ 7.82 µM) | 16 (≈ 7.82 µM) | 16 (≈ 7.82 µM) | 16 (≈ 7.82 µM) | 32 (≈ 15.6 µM) | MIC (μg/ml) 100% ([16]; Fusarium F1 (F. oxysporum)): 8 µg/mL (≈ 3.91 µM); MIC (μg/ml) 100% ([16]; Fusarium F2 (F. oxysporum)): 16 µg/mL (≈ 7.82 µM); MIC (μg/ml) 100% [17]: 8 µg/mL (≈ 3.91 µM)
3 | OeDef1_V3: OeDef1 variant of Table 13, printed with SEQ ID NO: 769, the number of GMAOe1C_V3 (GACLKNRHSKHYGWFWYYRHCY; not fully specified (C-terminus); cysteine pairing not given here) | – | – | – | – | – | – | – | – | – | – | – | – | – | MIC Tricophyton rubrum (23014) [18]: 4.0 µM; MIC Tricophyton metagrophytes (26103) [19]: 4.0 µM; MIC Aspergillus fumigatus (36843) ([13]; Table 13): >7.9 µM
4 | PD101.1.1: Nicotiana sylvestris wild-type defensin SEQ ID NO: 624 with an N-terminal alanine, expressed in Pichia pastoris (KLCRRRSKTFSSSCFISEHCDKECKEKEGAKRGMCIKKSIFGRFCYCFHKCK; N-terminal alanine; listed as Nicotiana sylvestris) | – | – | – | – | – | – | – | – | – | – | – | – | – | B. cinerea T4 MIC Day1 [20]: 1.5 µM; MIC against Z. tritici on day 1 [21]: 0.75 µM; MIC against Z. tritici on day 7 [21]: 1.5 µM; MIC against Z. tritici on day 14 [21]: 1.5 µM; Z. tritici IPO323 MIC Day 1 [21]: 0.75 µM; Z. tritici IPO323 MIC Day 7 [21]: 1.5 µM; Z. tritici IPO323 MIC Day 14 [21]: 1.5 µM; F. graminearum PH-1 MIC Day1 [22]: 1.5 µM; Curative protection against Septoria tritici blotch (STB) [23]: reduction of STB disease symptoms
